The subject of assay [1] is C1R-A11, -A31 or -A33 cells pulsed with corresponding peptide. Put plainly: Induction of peptide-specific CTLs from PBMCs (IFN-γ ELISA). Format: cell-based, human. (In general: ELISA stands for enzyme-linked immunosorbent assay.)
Assay [2] has as its system peptide-specific IgG in plasma of prostate cancer patients and healthy donors. Kind of assay: Detection of peptide-specific IgG in plasma by ELISA. Format: binding, human. The conditions noted are these: for IgG reactive to peptide in plasma: 1:100-diluted plasma.

Several values for one entry are separate records, joined by “and”; a condition that tells them apart may be missing. Identical values can stand only once.

These results are taken from patent US20100184699A1, “Peptide Derived From Prostate-Related Protein As Cancer Vaccine Candidate For Prostate Cancer Patient Who Is Positive For Hla-A3 Super-Type Allele Molecule” (priority 2005, published 2010).

For the sequence “LYDMSLLKNR (PSA 100-109) [PSA-derived peptide]”, the “Total (positive / tested)” value in assay [1] was 1/13 and 3/9. Further, the “IgG reactive to peptide in plasma” value in assay [2] (Healthy donor 2, A3) is listed as “+ (IgG reactive to a corresponding peptide was judged to be positive when a difference of the optical density (OD) in a 1:100-diluted plasma was more than 100)”; in assay [2] (Healthy donor 3, A31), “+ (IgG reactive to a corresponding peptide was judged to be positive when a difference of the optical density (OD) in a 1:100-diluted plasma was more than 100)”; in assay [2] (Healthy donor 4, A31) it was “+ (IgG reactive to a corresponding peptide was judged to be positive when a difference of the optical density (OD) in a 1:100-diluted plasma was more than 100)”; in assay [2] (Healthy donor 9, A11) it was “+ (IgG reactive to a corresponding peptide was judged to be positive when a difference of the optical density (OD) in a 1:100-diluted plasma was more than 100)”; in assay [2] (Prostate cancer patient 4, A31) it was “+ (IgG reactive to a corresponding peptide was judged to be positive when a difference of the optical density (OD) in a 1:100-diluted plasma was more than 100)”; in assay [2] (Prostate cancer patient 7, A11), “+ (IgG reactive to a corresponding peptide was judged to be positive when a difference of the optical density (OD) in a 1:100-diluted plasma was more than 100)”. The “IgG reactive to peptide in plasma” value in assay [2] (Prostate cancer patient 9, A11) was “+ (IgG reactive to a corresponding peptide was judged to be positive when a difference of the optical density (OD) in a 1:100-diluted plasma was more than 100)”; in assay [2] (Prostate cancer patient 10, A11), “+ (IgG reactive to a corresponding peptide was judged to be positive when a difference of the optical density (OD) in a 1:100-diluted plasma was more than 100)”; in assay [2] (Prostate cancer patient 13, A11), “+ (IgG reactive to a corresponding peptide was judged to be positive when a difference of the optical density (OD) in a 1:100-diluted plasma was more than 100)”; in assay [2] (Prostate cancer patient 14, A33), “+ (IgG reactive to a corresponding peptide was judged to be positive when a difference of the optical density (OD) in a 1:100-diluted plasma was more than 100)”; in assay [2] (Prostate cancer patient 19, A33), “+ (IgG reactive to a corresponding peptide was judged to be positive when a difference of the optical density (OD) in a 1:100-diluted plasma was more than 100)”. For the same sequence, the entries for the “IgG reactive to peptide in plasma, Total (positive/tested)” value in assay [2] (Healthy donors) and in assay [2] (Prostate cancer patients) were 4/9 and 7/20, respectively. For the same sequence, the “frequency of detection of peptide-reactive IgG” value in assay [2] (plasma of prostate cancer patients, compared within PSA, PAP or PSMA peptides) is recorded as “more frequently”.
